Patent US11672799B2, “1,4-disubstituted pyridazine quinolne analogs there of and methods for treating SMN-deficiency-related conditions” (Novartis AG, priority 2013, dated 2023)
pEC50: −log10 of the molar value. Read-outs that look alike come from different tables or passages of the source.

Test system: SMN protein
Assay: cellular SMN ELISA (SMN protein elevation) in myoblast cell line from SMNdelta7 mouse model
Format: cell-based
Procedure: A cellular SMN ELISA was used to measure the effects of low molecular weight compounds on SMN protein elevation. Cells from a myoblast cell line derived from the SMNdelta7 mouse model (kind gift from Steve Burden, NYU) were seeded into a 384-well plate at a density of 3000 cells/well and treated with compounds for 24 hours. ELISA capture plates were prepared by coating 384-well plates (Immulon 4HBX) with 0.5 ug/mL of anti-SMN mAb (BD Science, Catalog number 610647) at 4° C. overnight. The plates were washed 5 times with 110 uL of PBS-Tween (0.05% Tween-20, PBST), blocked with 100 uL of 1% BSA in PBST for 2 hours and washed (5 times) with 100 uL of PBST. After 24 hours of compound treatment cells were lysed in a modified RIPA-buffer, on ice for 1 hour. 20 uL of lysate and 20 uL of 1% BSA were then added to the ELISA capture plates and incubated at 4° C. overnight. Plates were washed (5 times) with PBST and then incubated with 1:100 dilution of primary rabbit anti-SMN polyclonal antibody (Santa cruz, Catalog number SC-15320) at room temperature for 1 hour and subsequently washed (5 times) with 110 uL of PBST. This was followed by addition of 1:100 Goat anti-Rabbit IgG-HRP linked (Cell Signaling, Catalog number 7074) secondary antibody for 1 hour. Plates were then washed with PBST and incubated with 40 uL TMB substrate (Cell Signaling, Catalog number 7004 L) at room temperature for 1-10 minutes with shaking. The reaction was stopped by addition of 40 uL of stop solution (Cell signaling, Catalog number 7002 L) and absorption was measured at 450 nm. Data was reported as fold activation over DMSO control, and EC50.
ELISA assay condition 1: compound concentration range 20 nM-10 uM; ELISA assay condition 2: compound concentration 100 pM-10 uM. Data generated in Biological Example 1 using ELISA conditions 1 or 2.

[1] = Biological Example 1, SMN ELISA, SMNdelta7 mouse myoblasts, 24 hours compound treatment
[2] = Biological Example 1, SMN ELISA, SMNdelta7 mouse myoblasts, 24 hours compound treatment, read-out: SMN Activity (EC50)
[3] = comparison of unsubstituted, ortho-hydroxy and ortho-alkoxy pyridazines, as in Biological Example 1
[4] = comparison of unsubstituted, ortho-hydroxy and ortho-alkoxy pyridazines, as in Biological Example 1, read-out: SMN ELISA EC50

SMILES	SMN Activity (fold activation over DMSO control) [1]	pEC50 [2]	Fold activation [3]	pEC50 [4]
CN(c1ccc(-c2cc3cccnc3cc2O)nn1)C1CC(C)(C)NC(C)(C)C1 [Example 1-1, 6-(6-(Methyl(2,2,6,6-tetramethylpiperidin-4-yl)amino)pyridazin-3-yl)quinolin-7-ol]	2.9 fold	7.70	2.9	7.70
CN(c1ccc(-c2cc3cccnc3cc2O)nn1)C1CC(C)(C)N(C)C(C)(C)C1 [Example 1-2, 6-(6-(methyl(1,2,2,6,6-pentamethylpiperidin-4-yl)amino)pyridazin-3-yl)quinolin-7-ol]	2.4 fold	6.47		
CN1C[C@@H]2CN(c3ccc(-c4cc5cccnc5cc4O)nn3)C[C@@H]2C1 [Example 1-3, 6-(6-((3aR,6aS)-5-methylhexahydropyrrolo[3,4-c]pyrrol-2(1H)-yl)pyridazin-3-yl)quinolin-7-ol]	2.5 fold	6.59		
Cc1ccc2cc(-c3ccc(N(C)C4CC(C)(C)NC(C)(C)C4)nn3)c(O)cc2n1 [Example 2-1, 2-methyl-6-(6-(methyl(2,2,6,6-tetramethylpiperidin-4-yl)amino)pyridazin-3-yl)quinolin-7-ol]	3.0 fold	7.70		
CN(c1ccc(-c2cc3cnccc3cc2O)nn1)C1CC(C)(C)N(C)C(C)(C)C1 [Example 3-1, 7-(6-(methyl(1,2,2,6,6-pentamethylpiperidin-4-yl)amino)pyridazin-3-yl)isoquinolin-6-ol]	3.1 fold	7.15		
CN(c1ccc(-c2cc3cnccc3cc2O)nn1)C1CC(C)(C)NC(C)(C)C1 [Example 3-2, 7-(6-(methyl(2,2,6,6-tetramethylpiperidin-4-yl)amino)pyridazin-3-yl)isoquinolin-6-ol]	2.75 fold	8.30	2.8	8.30
CC1(C)CC(Oc2ccc(-c3cc4cnccc4cc3O)nn2)CC(C)(C)N1 [Example 3-3, 7-(6-((2,2,6,6-tetramethylpiperidin-4-yl)oxy)pyridazin-3-yl)isoquinolin-6-ol]	2.5 fold	7.08		
CN1C[C@@H]2CN(c3ccc(-c4cc5cnccc5cc4O)nn3)C[C@@H]2C1 [Example 3-4, 7-(6-((3aR,6aS)-5-methylhexahydropyrrolo[3,4-c]pyrrol-2(1H)-yl)pyridazin-3-yl)isoquinolin-6-ol]	2.3 fold	7.22		
CN(c1ccc(-c2cc3c(C4CC4)nccc3cc2O)nn1)C1CC(C)(C)NC(C)(C)C1 [Example 3-5, 1-cyclopropyl-7-(6-(methyl(2,2,6,6-tetramethylpiperidin-4-yl)amino)pyridazin-3-yl)isoquinolin-6-ol]	2.54 fold	7.85		
CN(c1ccc(-c2cc3c(O)nccc3cc2O)nn1)C1CC(C)(C)NC(C)(C)C1 [Example 3-6, 7-(6-(methyl(2,2,6,6-tetramethylpiperidin-4-yl)amino)pyridazin-3-yl)isoquinoline-1,6-diol]	2.43 fold	8.10		
CN(c1ccc(-c2cc3c(C#N)nccc3cc2O)nn1)C1CC(C)(C)NC(C)(C)C1 [Example 3-7, 6-hydroxy-7-(6-(methyl(2,2,6,6-tetramethylpiperidin-4-yl)amino)pyridazin-3-yl)isoquinoline-1-carbonitrile]	2.9 fold	8.70		
CN(c1ccc(-c2cc3ccncc3cc2O)nn1)C1CC(C)(C)NC(C)(C)C1 [Example 4-1, 6-(6-(methyl(2,2,6,6-tetramethylpiperidin-4-yl)amino)pyridazin-3-yl)isoquinolin-7-ol]	2.6 fold	8.22	2.6	8.22
CN(c1ccc(-c2c(O)ccc3cccnc23)nn1)C1CC(C)(C)NC(C)(C)C1 [Example 5-1, 8-(6-(methyl(2,2,6,6-tetramethylpiperidin-4-yl)amino)pyridazin-3-yl)quinolin-7-ol]	2.6 fold	6.52		
CN(c1ccc(-c2cc3ncccc3cc2O)nn1)C1CC(C)(C)NC(C)(C)C1 [Example 6-1, 7-(6-(methyl(2,2,6,6-tetramethylpiperidin-4-yl)amino)pyridazin-3-yl)quinolin-6-ol]	2.82 fold	8.15	2.8	8.15
Cc1ccc2cc(O)c(-c3ccc(N(C)C4CC(C)(C)NC(C)(C)C4)nn3)cc2n1 [Example 6-2, 2-methyl-7-(6-(methyl(2,2,6,6-tetramethylpiperidin-4-yl)amino)pyridazin-3-yl)quinolin-6-ol]	3.2 fold	8.40		
CN(c1ccc(-c2cc3cc(Cl)cnc3cc2O)nn1)C1CC(C)(C)NC(C)(C)C1 [Example 7-1, 3-chloro-6-(6-(methyl(2,2,6,6-tetramethylpiperidin-4-yl)amino)pyridazin-3-yl)quinolin-7-ol]	2.8 fold	7.85		
CN(c1ccc(-c2cc3cc(Br)cnc3cc2O)nn1)C1CC(C)(C)NC(C)(C)C1 [Example 7-2, 3-bromo-6-(6-(methyl(2,2,6,6-tetramethylpiperidin-4-yl)amino)pyridazin-3-yl)quinolin-7-ol]	2.6 fold	8.10		
CN(c1ccc(-c2cc3cc(C#N)cnc3cc2O)nn1)C1CC(C)(C)NC(C)(C)C1 [Example 7-3, 7-hydroxy-6-(6-(methyl(2,2,6,6-tetramethylpiperidin-4-yl)amino)pyridazin-3-yl)quinoline-3-carbonitrile]	3.1 fold	8.10		
CN(c1ccc(-c2cc3cc(-c4cn(C)cn4)cnc3cc2O)nn1)C1CC(C)(C)NC(C)(C)C1 [Example 7-4, 6-(6-(methyl(2,2,6,6-tetramethylpiperidin-4-yl)amino)pyridazin-3-yl)-3-(1-methyl-1H-imidazol-4-yl)quinolin-7-ol]	2.2 fold	6.70		
CN(c1ccc(-c2cc3cc(-n4ccnc4)cnc3cc2O)nn1)C1CC(C)(C)NC(C)(C)C1 [Example 7-5, 3-(1H-imidazol-1-yl)-6-(6-(methyl(2,2,6,6-tetramethylpiperidin-4-yl)amino)pyridazin-3-yl)quinolin-7-ol]	2.5 fold	7.30		
CN(c1ccc(-c2cc3cc(O)cnc3cc2O)nn1)C1CC(C)(C)NC(C)(C)C1 [Example 7-6, 6-(6-(methyl(2,2,6,6-tetramethylpiperidin-4-yl)amino)pyridazin-3-yl)quinoline-3,7-diol]	2.9 fold	6.52		
CCc1cnc2cc(O)c(-c3ccc(N(C)C4CC(C)(C)NC(C)(C)C4)nn3)cc2c1 [Example 8-1, 3-ethyl-6-(6-(methyl(2,2,6,6-tetramethylpiperidin-4-yl)amino)pyridazin-3-yl)quinolin-7-ol]	2.9 fold	7.07		
CC(C)c1cnc2cc(O)c(-c3ccc(N(C)C4CC(C)(C)NC(C)(C)C4)nn3)cc2c1 [Example 8-2, 3-isopropyl-6-(6-(methyl(2,2,6,6-tetramethylpiperidin-4-yl)amino)pyridazin-3-yl)quinolin-7-ol]	2.50 fold	6.72		
CN(c1ccc(-c2cc3ccc(=O)[nH]c3cc2O)nn1)C1CC(C)(C)NC(C)(C)C1 [Example 9-1, 7-hydroxy-6-(6-(methyl(2,2,6,6-tetramethylpiperidin-4-yl)amino)pyridazin-3-yl)quinolin-2(1H)-one]	2.25 fold	7.52		
CN(c1ccc(-c2cc3ccc(=O)n(C)c3cc2O)nn1)C1CC(C)(C)NC(C)(C)C1 [Example 9-2, 7-hydroxy-1-methyl-6-(6-(methyl(2,2,6,6-tetramethylpiperidin-4-yl)amino)pyridazin-3-yl)quinolin-2(1H)-one]	2.25 fold	8.15		
COc1cc(C)nc2cc(O)c(-c3ccc(N(C)C4CC(C)(C)NC(C)(C)C4)nn3)cc12 [Example 10-1, 4-methoxy-2-methyl-6-(6-(methyl(2,2,6,6-tetramethylpiperidin-4-yl)amino)pyridazin-3-yl)quinolin-7-ol]	3.3 fold	8.00		
